In patent publication US9452981B2, “Pyroglutamic acid esters with improved biodegradability” (Clariant Produkte (Deutschland) GmbH, priority 2005, dated 2016):

Assay: Kinetic gas hydrate inhibition test in stirred steel autoclave
Details: 5000 ppm based on the water phase; for Tind (time from attainment of 4° C. until the first gas absorption): distilled water and gas 20:80, 50 bar natural gas; for Tagg (time until the torque rises): distilled water and gas 20:80, 50 bar natural gas, 4° C.
Description: To investigate the inhibiting action of the polyesters, a stirred steel autoclave with temperature control, pressure and torque sensor with capacity 450 ml was used. For investigations of kinetic inhibition, the autoclave was filled with distilled water and gas in a volume ratio of 20:80; for investigations of agglomerate inhibition, condensate was additionally added. Finally, 50 bar of natural gas were injected. […] At first, a pressure decrease corresponding to the thermal compression of the gas is observed. When the formation of gas hydrate nuclei occurs during the cooling time, the pressure measured falls, and a rise in the torque measured and a slight increase, in the temperature are observed. Without inhibitors, further growth and increasing agglomeration of the hydrate nuclei lead rapidly to a further rise in the torque. When the mixture is heated, the gas hydrates decompose, so that the starting state of the experimental series is attained. The measure used for the inhibiting action of the polymer is the time from the attainment of the minimum temperature of 4° C. until the first gas absorption (Tind) or the time until the torque rises (Tagg). Long induction times or agglomeration times indicate an effect as a kinetic inhibitor. The torque measured in the autoclave serves, in contrast, as a parameter for the agglomeration of the hydrate crystals. […] Composition of the natural gas used: methane 84.8%, ethane 9.2%, propane 2.6%, butane 0.9%, carbon dioxide 1.6%, nitrogen 0.9%. The comparative substance used was a commercially available gas hydrate inhibitor based on polyvinylpyrrolidone. The dosage in all tests was 5000 ppm based on the water phase.

Compound	Tind (time from attainment of 4° C. until the first gas absorption)	Tagg (time until the torque rises)
O=C1CC[C@@H](C(=O)OCCOCCOCCOC(=O)[C@@H]2CCC(=O)N2)N1 [Example 2, triethylene glycol di(pyroglutamate)]	7.3 h	7.4 h
O=C1CC[C@@H](C(=O)OCCOCCOCCOC(=O)[C@@H]2CCC(=O)N2)N1 [Example 1, triethylene glycol di(pyroglutamate)]	6.9 h	7.2 h
